Measured values taken from US5362747A, “2-nitroaryl and 2-cyanoaryl compounds as regulators of nitric oxide synthase” (Abbott Laboratories, priority 1993, dated 1994).

Columns and labels:
[1] = target: T1, Type II (macrophage) NOS (Mus musculus, UniProt P29477); assay: [3H]-arginine to [3H]-citrulline conversion, Type II (macrophage) NOS; format: biochemical, murine; conditions: cytosolic NOS from LPS-induced RAW 264.7 cells, 25° C.; for inhibition at 100 µM: read-out: Type II % inhib. @ 100 μM
T1 construct: cytosolic preparations of NO synthase (type II isoform) were prepared from RAW 264.7 cells; endogenous in cells; host or cells: RAW 264.7 cells, induced 16 hours with lipopolysaccharide; cytosolic preparation
Text: The enzyme NO synthase produces EDRF/NO and citrulline from L-arginine (Bredt and Snyder, Proc. Nat'l Acad Sci USA, 1989, 87: 682-5). The enzymatic generation of EDRF/NO is monitored by measuring the conversion of [^3 H]-L-arginine to [^3 H]-L-citrulline. An inhibitor of this specific enzymatic reaction lowers the conversion rate and, thus, the amount of [^3 H]-L-citrulline produced. Likewise, a compound acting as a substrate would compete with L-arginine and thereby lower the conversion rate.
The conversion of L-arginine to L-citrulline was assayed as reported previously (Bredt and Snyder, Proc. Nat'l Acad Sci USA, 1989, 87: 682-5) with minor modifications. Briefly, samples of partially purified NO synthase, […] of partially purified NO synthase or, alternately, […] of a cytosolic preparation of NO synthase. The type 1 isoform of NO synthase was isolated from rat brain cerebellum cells partially purified on a phosphocellulose column. The cytosolic preparations of NO synthase (type II isoform) were prepared from RAW 264.7 cells (a murine monocyte-macrophage cell line), induced for 16 hours with […] medium of lipopolysaccharide (LPS). Another enzyme isoform (type III)is known to be present in bovine endothelial cells (BAE cells), and can be utilized if an additional assay is desired. The samples of enzyme were incubated for 20 minutes (3 minutes in the cases of purified enzyme preparations) at 25° C. in the presence of […] L-[2,3-^3 H]arginine (55 Ci /mmol) (containing 34 nM (0.2 mCi)), 1 mM NADPH, 100 nM calmodulin, 2 mM CaCl2, and with varying concentrations of inhibitors, in a final volume of […]. The reaction was stopped by adding 1 mL of stop buffer (2 mM EGTA, 2 mM EDTA, 20 mM HEPES, pH 5.5). The total volume was then applied to a 1 mL Dowex AG 50WX-8 column (Na^+ form, BioRad) that had been pre-equilibrated with the stop buffer. L-[2,3-^3 H]Citrulline was eluted (2×) with 0.5 mL of stop buffer and radioactivity was determined by liquid scintillation counting. The L-[2,3-^3 H]arginine (Dupont, NEN) was purified prior to use on Dowex AG-1-X8 (CH3 CO2 -- form, Bio-Rad), eluted with distilled water, acidified, concentrated on a Speed-Vac (Savant) and stored at -20° C.

[2] = target: T2, Type I (rat brain) NOS (Rattus norvegicus, UniProt P29476); assay: [3H]-arginine to [3H]-citrulline conversion, Type I (rat brain) NOS; format: biochemical; conditions: rat brain cerebellum NOS, 25° C.; for inhibition at 100 µM: read-out: Type I % inhib. @ 100 μM
T2 construct: isolated from rat brain cerebellum cells partially purified on a phosphocellulose column; from tissue; host or cells: rat brain cerebellum, partially purified on phosphocellulose

[3] = tested on: bovine coronary artery; conditions: cited from earlier work
[4] = tested on: EDRF (NO) production; conditions: cited from earlier work
[5] = tested on: NO synthase enzyme; conditions: cited from earlier work

T1 sequence (P29477 whole entry, canonical isoform): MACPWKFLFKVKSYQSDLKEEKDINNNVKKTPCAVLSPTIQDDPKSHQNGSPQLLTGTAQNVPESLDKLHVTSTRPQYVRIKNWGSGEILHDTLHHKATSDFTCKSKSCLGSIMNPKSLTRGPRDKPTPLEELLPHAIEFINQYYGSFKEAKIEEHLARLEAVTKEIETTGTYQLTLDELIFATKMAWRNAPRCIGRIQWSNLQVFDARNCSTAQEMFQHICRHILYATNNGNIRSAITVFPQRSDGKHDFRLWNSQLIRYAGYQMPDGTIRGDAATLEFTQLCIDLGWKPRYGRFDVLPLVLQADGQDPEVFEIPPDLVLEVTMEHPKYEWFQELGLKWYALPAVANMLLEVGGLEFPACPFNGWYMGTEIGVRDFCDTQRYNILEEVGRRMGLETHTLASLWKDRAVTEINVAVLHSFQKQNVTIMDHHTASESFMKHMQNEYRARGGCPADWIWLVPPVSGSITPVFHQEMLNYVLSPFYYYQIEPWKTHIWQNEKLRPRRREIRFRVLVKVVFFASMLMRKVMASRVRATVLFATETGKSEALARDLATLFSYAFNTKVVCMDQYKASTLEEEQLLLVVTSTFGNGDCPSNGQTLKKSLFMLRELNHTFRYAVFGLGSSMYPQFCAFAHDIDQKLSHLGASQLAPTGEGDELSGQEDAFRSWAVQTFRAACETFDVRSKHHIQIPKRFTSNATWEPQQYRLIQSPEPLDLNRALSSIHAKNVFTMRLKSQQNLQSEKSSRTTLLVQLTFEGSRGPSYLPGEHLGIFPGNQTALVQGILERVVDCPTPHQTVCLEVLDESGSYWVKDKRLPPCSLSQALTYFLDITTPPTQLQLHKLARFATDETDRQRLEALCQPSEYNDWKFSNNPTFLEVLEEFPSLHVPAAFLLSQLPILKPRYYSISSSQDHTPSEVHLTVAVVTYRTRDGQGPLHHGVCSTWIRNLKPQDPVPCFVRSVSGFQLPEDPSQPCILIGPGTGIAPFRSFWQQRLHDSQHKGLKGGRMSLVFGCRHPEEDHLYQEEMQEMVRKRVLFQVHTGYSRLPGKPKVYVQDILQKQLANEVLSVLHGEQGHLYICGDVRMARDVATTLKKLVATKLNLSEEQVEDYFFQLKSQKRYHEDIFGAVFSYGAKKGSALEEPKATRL
T2 sequence (P29476 whole entry): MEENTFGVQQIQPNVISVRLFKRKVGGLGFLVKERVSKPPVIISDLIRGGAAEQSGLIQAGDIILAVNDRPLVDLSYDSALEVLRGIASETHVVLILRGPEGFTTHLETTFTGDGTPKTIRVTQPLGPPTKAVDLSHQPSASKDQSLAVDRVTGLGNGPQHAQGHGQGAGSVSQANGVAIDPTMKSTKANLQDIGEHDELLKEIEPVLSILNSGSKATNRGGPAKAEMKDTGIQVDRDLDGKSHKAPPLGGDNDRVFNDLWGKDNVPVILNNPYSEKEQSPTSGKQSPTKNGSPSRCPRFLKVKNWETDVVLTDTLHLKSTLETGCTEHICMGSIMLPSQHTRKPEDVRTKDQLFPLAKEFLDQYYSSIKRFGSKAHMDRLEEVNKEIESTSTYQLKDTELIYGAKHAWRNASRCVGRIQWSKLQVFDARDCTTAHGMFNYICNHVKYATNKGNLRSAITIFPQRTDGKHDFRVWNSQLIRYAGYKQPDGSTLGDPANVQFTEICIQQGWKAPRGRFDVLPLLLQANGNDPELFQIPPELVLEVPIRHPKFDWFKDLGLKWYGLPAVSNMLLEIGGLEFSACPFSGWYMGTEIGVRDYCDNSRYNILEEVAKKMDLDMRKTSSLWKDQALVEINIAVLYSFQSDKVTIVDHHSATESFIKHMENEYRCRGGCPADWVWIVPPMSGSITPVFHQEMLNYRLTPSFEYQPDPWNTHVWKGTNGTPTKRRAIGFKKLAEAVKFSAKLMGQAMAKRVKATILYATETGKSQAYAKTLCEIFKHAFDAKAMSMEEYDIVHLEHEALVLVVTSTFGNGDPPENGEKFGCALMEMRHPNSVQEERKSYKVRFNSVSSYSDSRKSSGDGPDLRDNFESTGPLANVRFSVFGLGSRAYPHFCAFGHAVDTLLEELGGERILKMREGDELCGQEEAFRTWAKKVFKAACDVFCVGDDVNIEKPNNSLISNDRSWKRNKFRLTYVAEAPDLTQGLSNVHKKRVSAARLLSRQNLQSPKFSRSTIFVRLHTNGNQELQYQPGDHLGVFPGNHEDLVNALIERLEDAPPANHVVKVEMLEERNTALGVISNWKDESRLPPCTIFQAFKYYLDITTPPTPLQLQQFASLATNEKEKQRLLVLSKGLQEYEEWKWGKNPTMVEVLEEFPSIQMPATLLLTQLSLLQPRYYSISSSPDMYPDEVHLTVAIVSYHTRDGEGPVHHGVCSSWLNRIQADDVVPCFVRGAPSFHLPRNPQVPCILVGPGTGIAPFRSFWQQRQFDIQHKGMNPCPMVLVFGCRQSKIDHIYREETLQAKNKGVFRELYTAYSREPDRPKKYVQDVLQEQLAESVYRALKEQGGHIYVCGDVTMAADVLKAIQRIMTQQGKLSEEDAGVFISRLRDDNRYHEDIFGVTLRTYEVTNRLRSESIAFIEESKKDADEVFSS

Compound	IC50 [1] [µM]	inhibition at 100 µM [2] [%]	IC50 [2] [µM]	inhibition at 100 µM [1] [%]	cGMP accumulation ([3]; accompanying relaxation of bovine coronary artery)	relaxation of bovine coronary artery [3]	EDRF (NO) production [4]	substrate for the NO synthase enzyme [5]
Cc1ccc([N+](=O)[O-])c(NCCC[C@@H](N)C(=O)O)c1 [Example 10, (2R)-2-amino-5-(5-methyl-2-nitrophenylamino)pentanoic acid]	100	58	70	45				
nitric oxide [nitric oxide (NO)]					cGMP accumulation	potent and transient relaxation		
Cc1ccc([N+](=O)[O-])c(NCCC[C@H](N)C(=O)O)c1 [Example 2, (2S)-2-amino-5-(5-methyl-2-nitrophenylamino)pentanoic acid]	10	88	4	88				
CNC(=N)NCCCC(N)C(=O)O (centres unmarked) [N^G -methylarginine]							inhibited	
Cc1ccc([N+](=O)[O-])c(SCCC[C@H](N)C(=O)O)c1 [Example 8, 2(S)-amino-5-(5-methyl-2-nitrophenylthioxy)pentanoic acid]	9	97	1	95				
N-hydroxyarginine								substrate
N[C@@H](CCCNc1c(Cl)cccc1[N+](=O)[O-])C(=O)O [Example 6, (2S)-2-amino-5-(2-chloro-6-nitrophenylamino)pentanoic acid]	> 100	55	100	11				
N=C(NCCC[C@H](N)C(=O)O)N[N+](=O)[O-] [NNLA, NNitro-L-arginine, reference compound]	7	95		94				
Cc1ccc([N+](=O)[O-])c(NC/C=C/[C@H](N)CO)c1 [Example 3, (2S)-2-amino-5-(5-methyl-2-nitrophenylamino)-pent-3E-en-1-ol]	10	99	3					

Now from value to compound, other results behind:

IC50 [1] [µM]	inhibition at 100 µM [2] [%]	IC50 [2] [µM]	inhibition at 100 µM [1] [%]	Compound	cGMP accumulation ([3]; accompanying relaxation of bovine coronary artery)	relaxation of bovine coronary artery [3]	EDRF (NO) production [4]	substrate for the NO synthase enzyme [5]
> 100	91	40		Cc1ccc([N+](=O)[O-])c(NCCCC[C@H](N)C(=O)O)c1 [Example 7, (2S)-2-amino-6-(2-nitro-5-methylphenylamino)hexanoic acid]				
100	6	> 100	50	N#Cc1ccccc1NCCC[C@H](N)C(=O)O [Example 11, (2S)-2-amino-5-(2-cyanophenylamino)pentanoic acid]				
100	68	20	46	COc1ccc([N+](=O)[O-])c(NCCC[C@H](N)C(=O)O)c1 [Example 5, (2S)-2-amino-5-(5-methoxy-2-nitrophenylamino)pentanoic acid]				
2.5	94	3	99	Cc1ccc([N+](=O)[O-])c(NCCCC(N)CO)c1 (centres unmarked) [Example 4, 2-amino-5-(5-methyl-2-nitrophenylamino)-1-pentanol]				
